Patent publication US12728116B2, “Methods of treating multiple sclerosis” (Vanda Pharmaceuticals Inc., priority 2021, dated 2026)

What was measured:
Format in all cases: in vivo, human
[1] = system: Patients (18-55 years) with RMS; assay: Prespecified MRI-based endpoints and NEDA-3 status
Procedure: Patients (18-55 years) with RMS (expanded disability status scale scores: 0-5.5) were randomized (1:1) to receive ponesimod (PON) 20 mg or teriflunomide (TER) 14 mg for 108 weeks. MRI assessments were: volume of T2 lesions; mean number of new gadolinium-enhancing (Gd+) T1 lesions and new/enlarging T2 lesions; and absence of active MRI lesions at week 108. NEDA-3 status (absence of confirmed relapse, Gd+T1 lesions and new/enlarging T2 lesions on annual MRIs, and 12-week confirmed disability accumulation) was evaluated from baseline to week 108.

[2] = system: adult subjects with relapsing MS; assay: FSIQ-RMS weekly symptoms score, change from baseline to Week 108 (fatigue)
Procedure: In some embodiments, the patient-reported outcome questionnaire is the symptom domain of the FSIQ-RMS. The FSIQ-RMS symptom domain (FSIQ-RMS-S) consists of seven items assessing fatigue-related symptoms with a recall period of 24 hours measured on an 11-point numeric rating scale; the standardized symptom domain score ranges from 0 to 100 with a higher score indicating greater fatigue. This domain (i.e., section 1 of the questionnaire) is completed on 7 consecutive days.
As used herein, the term “patient level” refers to individual or within patient level of change. As used herein, “clinically meaningful” refers to the practical importance of a treatment effect and whether it has a real genuine, palpable, noticeable effect on symptoms and/or daily life. When interpreting data from a Patient Reported Outcome (PRO), for example, it is helpful to define a level of change on the PRO score over a predetermined time period that should be interpreted as a treatment benefit. Various terms are used for this level of change, including meaningful change threshold (MCT). This threshold can be used to conduct a responder analysis where an individual patient is a responder if the level of change on the PRO score for that patient exceeds the MCT. The proportion of responders between treatment groups can be compared to evaluate treatment effect. For example, in certain embodiments disclosed herein, there is an analysis of the percentage of responders in the ponesimod and teriflunomide treatment groups using an MCT of −6.3 on the FSIQ-RMS weekly symptom score. The percentage of subjects in the stable or improved category is also calculated. […] Accordingly, evaluation of within patient changes using MCT and associated responder analyses are used to provide additional interpretation to a p-value derived from a statistical test
For the MS symptoms domain, the FSIQ-RMS asks about a patient's fatigue-related symptoms of relapsing MS over the past 24 hours while doing routine daily activities (e.g., housework, yard work, shopping, working, etc.) for Items 1-6 or while at rest (e.g., reading a book, watching TV, etc.) for Item 7. Patients are asked to select a response on a scale of 0 to 10 that best describes their experience and are asked to not skip any questions, with no answers being right or wrong. • Item 1—In the past 24 hours, while doing routine daily activities, how physically tired did you feel? See FIG. 31. • Item 2—In the past 24 hours, while doing routine daily activities, how mentally tired did you feel? See FIG. 32. • Item 3—In the past 24 hours, while doing routine daily activities, how physical weak did you feel? See FIG. 33. • Item 4—In the past 24 hours, how would you rate your energy while doing routine daily activities? See FIG. 34. • Item 5—In the past 24 hours, while doing routine daily activities, how worn out did you feel? See FIG. 35. • Item 6—In the past 24 hours, while doing routine daily activities, how sleepy did you feel? See FIG. 36. • Item 7—In the past 24 hours, how worn out did you feel while at rest? MS-Related Impacts—13 Items
Secondary efficacy variables and testing strategy: Four secondary efficacy endpoints were analyzed as per the statistical testing strategy outlined in FIG. 1. • Change from baseline to Week 108 in fatigue-related symptoms as measured by the symptoms domain of the FSIQ-RMS patient-reported outcome [Fatigue] • Cumulative number of combined unique active lesions from baseline to Week 108 on brain MRI [CUALs] • Time to first 12-week confirmed disability accumulation (CDA) from baseline to EOS on Expanded Disability Status Scale (EDSS) [12-week CDA] • Time to first 24-week CDA from baseline to EOS on EDSS [24-week CDA] […]

[3] = system: adult subjects with relapsing MS; assay: Treatment-emergent adverse events (Safety Set); details: for AESI effect on heart rate and rhythm (including hypotension) on Day 1: subjects with at least one AE, %: Day 1 (ponesimod dose 2 mg);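 on all read-outs here: safety Set comprises every randomized subject given one or more doses, analysed by the treatment actually received rather than the assigned arm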
Procedure: The Safety Set (SAF) included all randomized subjects who received at least one dose of study treatment. Subjects were analyzed based on actual treatment taken, not randomized treatment.

[4] = Week 108, Baseline EDSS <3.5 (title: ≤3.5)
[5] = Week 108, baseline fatigue below the median
[6] = Week 108, no Gd+ T1 lesions at baseline
[7] = Week 108, no prior DMT treatment within about two years
[8] = ponesimod 20 mg, teriflunomide 14 mg
[9] = treatment-emergent AESI, Safety Set
[10] = treatment-emergent AESI, Safety Set, listed as teriflunomide
[11] = treatment-emergent, Safety Set, listed as teriflunomide

## C/C(O)=C(\C#N)C(=O)Nc1ccc(C(F)(F)F)cc1 [Teriflunomide, reference compound]
[1]; At week 108
  Patients who achieved NEDA-3: 18.3%
[1]; baseline to week 108
  Mean number of new Gd+T1 lesions per scan: 0.43
  Mean numbers of new/enlarging T2 lesions per year: 3.16
[2]; [4]
  FSIQ-RMS change: Improved (<−6.3), patients: 27.9%
  FSIQ-RMS change: Stable (−6.3 < x < +6.3), patients: 34.2%
  FSIQ-RMS change: Stable or Improved, patients: 62.1%
  FSIQ-RMS change: Worsened (≥6.3), patients: 37.9%
[2]; Week 108, Full Analysis Set
  FSIQ-RMS-S total score change: Improved (<−6.3), patients: 29.9%
  FSIQ-RMS-S total score change: Stable (−6.3 < x < +6.3), patients: 32.6%
  FSIQ-RMS-S total score change: Stable or Improved, patients: 62.5%
  FSIQ-RMS-S total score change: Worsened (≥6.3), patients: 37.5%
[2]; [5]
  FSIQ-RMS change: Improved (<−6.3), patients: 20.9%
  FSIQ-RMS change: Stable (−6.3 < x < +6.3), patients: 33.7%
  FSIQ-RMS change: Stable or Improved, patients: 54.6%
  FSIQ-RMS change: Worsened (≥6.3), patients: 45.4%
[2]; Week 108, baseline fatigue below the median, listed as teriflunomide
  FSIQ-RMS change: Stable or Improved, patients: about 55%
[2]; [6]
  FSIQ-RMS change: Improved (<−6.3), patients: 25.8%
  FSIQ-RMS change: Stable (−6.3 < x < +6.3), patients: 31.2%
  FSIQ-RMS change: Stable or Improved, patients: 57.0%
  FSIQ-RMS change: Worsened (≥6.3), patients: 43.0%
[2]; Week 108, no Gd+ T1 lesions at baseline, listed as teriflunomide
  FSIQ-RMS change: Stable or Improved, patients: about 57%
[2]; [7]
  FSIQ-RMS change: Improved (<−6.3), patients: 26.2%
  FSIQ-RMS change: Stable (−6.3 < x < +6.3), patients: 36.9%
  FSIQ-RMS change: Stable or Improved, patients: 63.1%
  FSIQ-RMS change: Worsened (≥6.3), patients: 36.9%
[2]; ponesimod 20 mg, teriflunomide 14 mg, full analysis set, increase = worsening
  Mean change from baseline to Week 108 in FSIQ-RMS weekly symptoms score (MMRM): 3.56
[3]; Safety Set
  AESI effect on heart rate and rhythm (including hypotension) on Day 1: subjects with at least one AE, %: (0.4) %
[3]; Safety Set, listed as teriflunomide
  AESI effect on heart rate and rhythm (including hypotension) on Day 1: subjects with at least one AE, %: 0.4%
[3]; Day 1, Safety Set
  Day 1 AESI PT Electrocardiogram QT prolonged, %: (0.2) %
  Day 1 AESI PT Presyncope, %: (0.2) %
[3]; [8]
  TEAE ALT increased, subjects: 9.4%
  TEAE headache, subjects: 12.7%
  TEAE nasopharyngitis, subjects: 16.8%
  TEAE upper respiratory tract infection, subjects: 10.4%
[3]; [9]
  AESI category Effect on heart rate and rhythm (including aypotension), %: (4.2) %
  AESI category Hepatobiliary disorders/Liver enzyme abnormality, %: (14.5) %
  AESI category Herpetic infection, %: (4.8) %
  AESI category Hypertension, %: (9.0) %
  AESI category Macular edema, %: (0.2) %
  AESI category Non-skin malignancy, %: (0.2) %
  AESI category Pulmonary events, %: (2.7) %
  AESI category Seizure, %: (0.2) %
  AESI category Skin malignancy, %: (0.2) %
[3]; [10]
  AESI category Hepatobiliary disorders/Liver enzyme abnormality, %: 14.5%
  AESI category Hypertension, %: 9.0%
  AESI category Pulmonary events, %: 2.7%
[3]; treatment-emergent AESI, only if reported as serious or severe, Safety Set
  AESI category Infection, %: (0.9) %
[3]; treatment-emergent, Safety Set
  AEs leading to premature discontinuation, SOC Blood and lymphatic system disorders, %: (0.4) %
  AEs leading to premature discontinuation, SOC Cardiac disorders, %: (0.4) %
  AEs leading to premature discontinuation, SOC Gastrointestinal disorders, %: (0.7) %
  AEs leading to premature discontinuation, SOC General disorders and administration site conditions, %: (0.4) %
  AEs leading to premature discontinuation, SOC Hepatobiliary disorders, %: (0.4) %
  AEs leading to premature discontinuation, SOC Investigations, %: (1.8) %
  AEs leading to premature discontinuation, SOC Musculoskeletal and connective tissue disorders, %: (0.2) %
  AEs leading to premature discontinuation, SOC Neoplasms benign, malignant and unspecified (incl cysts and polyps), %: (0.2) %
  AEs leading to premature discontinuation, SOC Nervous system disorders, %: (0.7) %
  AEs leading to premature discontinuation, SOC Pregnancy, puerperium and perinatal conditions, %: (0.5) %
  AEs leading to premature discontinuation, SOC Psychiatric disorders, %: (0.2) %
  AEs leading to premature discontinuation, SOC Reproductive system and breast disorders, %: (0.2) %
  AEs leading to premature discontinuation, SOC Skin and subcutaneous tissue disorders, %: (0.4) %
  AEs leading to premature discontinuation, SOC Social circumstances, %: (0.2) %
  AEs leading to premature discontinuation, SOC Surgical and medical procedures, %: (0.2) %
  Subjects with at least one AE leading to study drug discontinuation, %: (6.0) %
  Subjects with at least one AE, %: (88.2) %
  Subjects with at least one Drug-Related AE, %: (42.0) %
  Subjects with at least one Fatal AE, %: (0.4) %
  Subjects with at least one Serious AE, %: (8.1) %
  Subjects with at least one Severe AE, %: (4.6) %
[3]; [11]
  Subjects with at least one AE leading to study drug discontinuation, %: 6.0%
  Subjects with at least one AE, %: 88.2%
  Subjects with at least one Serious AE, %: 8.1%
